The values that follow come from EP1452605A1, “Method for determining antiviral activity” (Universiteit Utrecht Holding B.V., priority 2003, dated 2004).

Like-named read-outs stand apart in the source and are kept apart here.

Data set [1] deals with chronically HIV-1-infected U1 cell line. Kind of data set: Infection model with the chronically HIV-1-infected monocytic cell line U1, p24 ELISA. To be noted: PMA (100 ng/ml) stimulated, APHS 3, 10 and 30 µM, 2 days. It counts as cell-based. On the procedure: U1 cells (AIDS Reagents, Rockville, […]) were incubated with 100 ng/ml phorbol myristate acetate (PMA; Sigma) or with medium (negative control) for 30 min. Afterwards the cells were washed and seeded in a concentration of 1 × 10^6 cells/ml in RPMI 1640 medium containing 10% FCS and 10 µg/ml gentamycin either with increasing concentrations of APHS or with 30 mM N-acetyl-L-cysteine (NAC; Sigma), which served as a positive control. After 2 days of incubation, samples of the supernatant were collected, inactivated by addition of Empigen and by 30 min incubation at 56°C. The concentration of p24 was determined by ELISA (AMPAK™) as described above.

The nature of data set [2]: Cellular viability assay (MTT) of MDM. The following applies: human, 7 days, read-out: TC50. It is filed as cell-based.
Data set [3] concerns the target HIV-1 RT (Human immunodeficiency virus type 1 group M subtype B, UniProt P04585). Kind of data set: Cell-free RT assay (primer extension). It counts as biochemical. On the procedure:
The HIV-1 RNA template (positions +1 to +368, with +1 being the capped G residue) was synthesized in vitro with T7 RNA polymerase as described previously ^27. In the reverse transcription assay, 10 ng of the RNA template was incubated with 1.5 µg calf liver tRNA ([…] total tRNA, of which approximately 1.2 pmol tRNA^lys3, Boehringer) or 20 ng of a DNA primer complementary to the primer binding site (PBS) (positions +182 to +202) in 12 µl annealing buffer (83 mM Tris-HCl pH 7.5, 125 mM KCl) at 85 °C for 2 min and 65 °C for 10 min, followed by cooling to room temperature over a 1h period. Reverse transcription was initiated by the addition of 6 µl RT buffer (9 mM MgCl2, 30 mM DTT, 150 µg/ml actinomycine D, 30 µM dATP, dGTP and dTTP and 1.5 µM dCTP), 0.5 µl [α-^32P]dCTP and 0.5 U HIV-1 RT (MRC) in the presence or absence of APHS (10, 30, 300 and 1000 µM) or 10% ethanol. The reaction was incubated for 30 min at 37 °C. The cDNA product was precipitated in 0.3 M sodiumacetate, pH 5.2 and 80% ethanol at-20°C, dissolved in formamide loading buffer and analyzed on a denaturing 6% polyacrylamide-urea sequencing gel.

Data set [4] has as its system HIV-1HXB2. Kind of data set: HIV-1 infection of PBL, p24-core antigen ELISA. It counts as cell-based. To be noted: Human immunodeficiency virus 1, 168 h; PBL infected with HIV-1HXB2, p24 antigen after 7 days. As to the method:
To correct for the input virus, an extra control consisting of medium containing the same amount of input virus as added to the cells was included in the experiment. The amount of p24 in this control was subsequently subtracted from the p24 values of the samples in order to obtain the exact amount of p24 produced by the cells. p24-core antigen quantification by ELISA After 2 or 7 days incubation, samples of the supernatants were collected, inactivated by addition of Empigen (Calbiochem, La Jolla, CA, USA) and by heat inactivation at 56°C for 30 min. p24-core antigen concentration was determined by an enzyme linked immunoabsorbent assay (ELISA) (AMPAK™, DAKO, Cambridgeshire, UK) as described previously ^18,19. The optical density values were converted into p24 concentration (ng/ml) with the use of a calibration curve made by serial dilutions of recombinant p24 protein (NIBSC, UK) that was submitted to the same treatment as the samples.

Data set [5] deals with FIV UT-113. Kind of data set: FIV infection of CrFK cells, FIV p24 ELISA. It counts as cell-based, Feline immunodeficiency virus (FIV). The following applies: 100 to 0.024 µM, p24 after 6 days. On the procedure:
After 6 days of incubation FIV replication was measured by quantification of the p24 viral core antigen in the cell culture supernatant by an FIV p24 enzyme-linked immunoabsorbent assay as described previously ^19.

Data set [6] deals with HIV-1Ba-L. Kind of data set: Combination of HIV-1 inhibitors in HIV-1Ba-L infected PBMC (checker board, CalcuSyn). To be noted: Human immunodeficiency virus 1, PBMC.
Description: After 7 days incubation, samples of the supernatants were collected, inactivated by addition of Empigen (Calbiochem, La Jolla, CA, USA) and by heat inactivation at 56°C for 30 min. p24-core antigen concentration was determined by an ELISA (AMPAK™, DAKO, Cambridgeshire, UK) as described previously ^39,40. The optical density values were converted into p24 concentration (ng/ml) with the use of a calibration curve made by serial dilutions of recombinant p24 protein (NIBSC, UK) that was submitted to the same treatment as the samples.
After 7 days of incubation, p24 antigen in culture supernatant was quantified by ELISA and cellular viability was assessed by a cytotoxicity assay. fa was calculated for each drug combination after p24 quantification. Using the CalcuSyn program, dose-effect curves were plotted for each drug combination, i.e., each dose was plotted against the corresponding fa value. […] CI values were calculated using the mutually nonexclusive assumption.

Regarding `CCCCC#CCSc1ccccc1OC(C)=O` [APHS, o-(acetoxyphenyl)hept-2-ynyl sulfide], the “HIV-1 production (p24) by U1 cells” value in data set [1] is “not capable of inhibiting HIV-1 production”. The CC50 at 168 h in data set [2] turned out to be 235 µM. Moreover, the “RT activity in the primer extension assay” value in data set [3] is given as “no inhibition of RT activity”. For the same compound, in data set [3] (1000 µM APHS, effect probably due to the ethanol in the sample), the “amount of reverse transcription product” value was “decreased the amount of reverse transcription product”. Further, the “cDNA formation” value in data set [3] (APHS 10 to 300 µM) is “did not affect cDNA formation”. Besides, the IC50 was 12 µM in data set [4]; 10 to 15 µM in data set [6] (168 h, read-out: IC50 Alone APHS, APHS alone, PBMC, HIV-1Ba-L, 7 days, one value per experiment with the named partner drug); 13 µM in data set [6] (read-out: IC50 of APHS alone (mean), mean over the combination experiments); 5 µM in data set [6] (read-out: IC50 of APHS in combination with RTI or PI (mean), mean over the combination experiments). The “effect on FIV replication” value in data set [5] was “did not show any effect”.
